We go through four molecules from article PMC11940309, “Endocrine-Disrupting Activities of Flavones on Steroid Receptors: Structural Requirements and Synthesis of Novel Flavone with Improved Estrogenic Activity” (Biomedicines, 2025).

As usually defined, the inhibition is the relative decrease from the control value, in per cent.

The target in experiment [1] is T1, progesterone receptor (PR) (Homo sapiens, UniProt P06401).
T1 sequence (P06401 679-933 limits assumed): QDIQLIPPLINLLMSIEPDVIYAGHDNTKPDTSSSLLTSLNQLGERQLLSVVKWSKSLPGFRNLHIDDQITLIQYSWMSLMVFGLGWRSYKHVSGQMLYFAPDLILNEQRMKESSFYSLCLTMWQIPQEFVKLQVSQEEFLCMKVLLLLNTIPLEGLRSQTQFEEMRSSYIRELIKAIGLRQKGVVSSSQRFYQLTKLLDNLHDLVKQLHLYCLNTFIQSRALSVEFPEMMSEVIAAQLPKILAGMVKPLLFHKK
The experiment in a line: PR-mediated induction of transcription by R5020 in T47D K5pLuc cells (luciferase reporter and endogenous alkaline phosphatase). It is filed as cell-based. The following applies: T47D, R5020 1.0 nM. In a few lines:
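T47D K5pLuc cells, carrying a stably integrated cytokeratin 5-luciferase reporter, were treated with 1.0 nM R5020 plus compound for 20 h in DMEM/10% FBS. Luciferase and endogenous alkaline phosphatase measured by luminescence, in quadruplicate. Percent inhibition = 100 minus percent induction.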
(In general: A reporter such as luciferase makes a cellular process visible.)

Experiment [2] deals with T2, glucocorticoid receptor (GR) (Rattus norvegicus, UniProt P06536).
T2 construct: host or cells: T47D (A1-2)
T2 sequence (P06536 1-795): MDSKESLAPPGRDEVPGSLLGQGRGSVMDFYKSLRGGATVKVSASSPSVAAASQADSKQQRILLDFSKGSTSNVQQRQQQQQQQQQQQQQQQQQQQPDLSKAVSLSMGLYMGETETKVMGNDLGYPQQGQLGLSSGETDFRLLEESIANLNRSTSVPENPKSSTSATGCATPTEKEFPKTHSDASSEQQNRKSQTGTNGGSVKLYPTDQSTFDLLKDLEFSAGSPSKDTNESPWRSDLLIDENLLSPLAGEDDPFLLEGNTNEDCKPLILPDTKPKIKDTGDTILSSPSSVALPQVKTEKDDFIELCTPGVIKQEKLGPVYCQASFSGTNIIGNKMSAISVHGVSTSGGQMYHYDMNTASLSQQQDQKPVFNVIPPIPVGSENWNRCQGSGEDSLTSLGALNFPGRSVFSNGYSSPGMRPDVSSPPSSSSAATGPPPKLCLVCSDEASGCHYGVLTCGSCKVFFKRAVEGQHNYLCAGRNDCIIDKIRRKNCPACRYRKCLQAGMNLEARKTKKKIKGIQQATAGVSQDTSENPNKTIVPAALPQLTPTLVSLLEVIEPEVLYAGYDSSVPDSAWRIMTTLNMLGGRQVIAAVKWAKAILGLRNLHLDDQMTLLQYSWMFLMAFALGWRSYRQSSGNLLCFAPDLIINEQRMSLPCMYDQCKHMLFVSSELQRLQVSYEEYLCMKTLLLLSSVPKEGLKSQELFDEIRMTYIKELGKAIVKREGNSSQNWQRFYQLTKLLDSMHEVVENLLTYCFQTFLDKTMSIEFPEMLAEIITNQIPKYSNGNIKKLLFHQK
The experiment in a line: GR-mediated induction of transcription by dexamethasone in T47D (A1-2) cells (luciferase reporter and endogenous alkaline phosphatase). It is filed as cell-based, human. The following applies: T47D, dexamethasone 1.0 nM. An excerpt: The engineered T47D breast cancer cell lines employed for the assessment of flavonoid activity on glucocorticoid receptor (GR) and progesterone receptor (PR) signaling permitted the facile quantitation transcription of both an endogenous gene and a stably integrated reporter gene. […] The T47D K5pLuc cell line responds to progestins via induction of a stably integrated cytokeratin 5-luciferase reporter gene. […] For assessment of the effect of the test compounds on androgen receptor (AR) signaling, we used the HeLa13 cell line engineered to stably express human AR and a PSA-luciferase reporter gene containing a 4× multimerized PSA upstream enhancer ARE1 linked to the E4 TATA box and luciferase gene.
For assessment of the effect of flavones on glucocorticoid receptors, T47D (A1-2) cells were maintained in Minimal Essential Medium, 10% Fetal Bovine Serum (FBS), 0.2 mg/mL G418, penicillin (100 U/mL), and streptomycin (100 μg/mL). For experiments, medium was removed, and cultures rinsed with Phosphate-Buffered Saline (PBS) + 1.0 mM EDTA (PBSE), detached with trypsin, pelleted, and resuspended in medium to a concentration of 500,000 cells/mL. Aliquots of cell suspension, 100 microliters/well, were transferred into a 96-well, white, flat-bottomed plate and allowed to attach for 24 h. The following day, each well was treated with a 50 microliter aliquot of a test compound diluted in medium. Controls received medium containing DMSO diluted in the same way. For hormone treatment, dexamethasone was diluted in medium and added as 50 microliter aliquots so that the final volume in each well was 200 microliters. The final concentration of dexamethasone was 1.0 nM. Controls received medium without hormone. Hormone treatment was for 20 h at which time cells were harvested for assay of alkaline phosphatase and luciferase.
For all cell lines, cell harvesting and the luminescence assay for alkaline phosphatase and/or luciferase were performed as previously described in detail. Each condition was performed in quadruplicate. […] Percent inhibition is 100 minus the percent induction.

The mark [3] stands for this setting: 4 µM, AP (alkaline phosphatase), read-out: % Inhibition of GR Induction.
Setting [4] is: 4 µM, LUC (luciferase), read-out: % Inhibition of GR Induction.
Where [5] appears, read: 8 µM, AP (alkaline phosphatase), read-out: % Inhibition of GR Induction.
Where [6] appears, read: 8 µM, LUC (luciferase), read-out: % Inhibition of GR Induction.

Where two headings read alike, the source gives them in different places.

For `O=c1cc(-c2ccc(O)c(O)c2)oc2cc(O)ccc12` [7,3′,4′-trihydroxyflavone], the inhibition at 4 µM in experiment [1] (AP (alkaline phosphatase)) was 13%; in experiment [1] (LUC (luciferase)), -11%; in experiment [2] (setting [3]) it was 21%; in experiment [2] (setting [4]) it was -117%. The inhibition at 8 µM in experiment [1] (AP (alkaline phosphatase)) is 39%; in experiment [1] (LUC (luciferase)) it was -10%; in experiment [2] (setting [5]), 36%; in experiment [2] (setting [6]), -87%.

Take `O=c1cc(-c2ccc(O)cc2)oc2cc(O)ccc12` [7,4′-dihydroxyflavone]: the inhibition at 4 µM was 41% in experiment [1] (AP (alkaline phosphatase)); -16% in experiment [1] (LUC (luciferase)); 47% in experiment [2] (read-out: % Inhibition of GR Induction, 4 µM, AP (alkaline phosphatase)); -92% in experiment [2] (read-out: % Inhibition of GR Induction, 4 µM, LUC (luciferase)). Also, the inhibition at 8 µM in experiment [1] (AP (alkaline phosphatase)) was 55%; in experiment [1] (LUC (luciferase)) it was -49%; in experiment [2] (read-out: % Inhibition of GR Induction, 8 µM, AP (alkaline phosphatase)) it was 64%; in experiment [2] (read-out: % Inhibition of GR Induction, 8 µM, LUC (luciferase)), -38%.

As to `O=c1c(-c2ccc(O)cc2)coc2cc(O)ccc12` [7,4′-dihydroxyisoflavone], the results for the inhibition at 4 µM in experiment [1] (AP (alkaline phosphatase)) and in experiment [1] (LUC (luciferase)) were 41% and -13%, respectively. The inhibition at 8 µM in experiment [1] (AP (alkaline phosphatase)) was 38%; in experiment [1] (LUC (luciferase)) it was -126%; in experiment [2] (setting [5]), 5%; in experiment [2] (setting [6]), -52%.

With `O=c1cc(-c2ccccc2)oc2ccccc12` [flavone], the inhibition at 4 µM in experiment [1] (AP (alkaline phosphatase)) was 10%; in experiment [1] (LUC (luciferase)), -66%; in experiment [2] (setting [3]) it was 13%; in experiment [2] (setting [4]) it was 4%. Besides, the inhibition at 8 µM in experiment [1] (AP (alkaline phosphatase)) is 40%; in experiment [1] (LUC (luciferase)) it was -107%; in experiment [2] (setting [5]), 34%; in experiment [2] (setting [6]), -24%.
